Data taken from US9409905B2, “Antibacterial compounds and methods for use” (PTC THERAPEUTICS, INC., priority 2011, dated 2016).
Converted amounts (≈) assume the structure as drawn.

What was measured:
E. coli 25922 = assay: Antibacterial activity, microbroth dilution MIC (Table 1); format: cell-based, Escherichia coli; settings: Escherichia coli; microbroth dilution; control Gram-negative E. coli 25922 strain; read-out: MIC, 25922
Method in brief: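 Growth inhibition by microbroth dilution. MIC = lowest μg/mL with no visible growth. Strain 25922 is the control Gram-negative; BAS849 is hypersensitive.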

E. coli LZ3111 = assay: Antibacterial activity, MIC, quinolone resistant strain (Table 2); format: cell-based; settings: Escherichia coli, LZ3111, read-out: MIC LZ3111
Method in brief: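 Broth microdilution. Read-out: MIC in μg/mL, taken as lowest concentration with no macroscopically visible growth.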

[1] = system: Staphylococcus aureus (S. aureus) 29213; assay: Antibacterial activity, microbroth dilution MIC (Table 1); format: cell-based; settings: microbroth dilution, Gram-positive S. aureus 29213, read-out: MIC, 29213
Method in brief: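 Broth microdilution against S. aureus 29213, E. coli 25922 and hypersensitive E. coli BAS849. MIC in μg/mL is the lowest drug concentration preventing macroscopically visible growth under test conditions.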

[2] = system: Escherichia coli (E. coli) BAS849; assay: as above; format: cell-based; settings: microbroth dilution, super sensitive Gram-negative E. coli BAS849, read-out: MIC, BAS849
Method in brief: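 MIC (μg/mL) is taken as the lowest concentration with no macroscopically visible growth. Strains tested by microbroth dilution: Gram-positive S. aureus 29213, control Gram-negative E. coli 25922, and super-sensitive E. coli BAS849.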

Compound | MIC (E. coli 25922) [µg/mL] | MIC (E. coli LZ3111) [µg/mL] | MIC [1] [µg/mL] | MIC [2] [µg/mL]
CCc1cc(C(=O)O)c(=O)[nH]c1-c1cc2cc(CN3CCCC3)n(C)c2cc1OC [Cpd 107, 5-ethyl-6-(6-methoxy-1-methyl-2-(pyrrolidin-1-ylmethyl)-1H-indol-5-yl)-2-oxo-1,2-dihydropyridine-3-carboxylic acid] | 12.5 to 150 (≈ 30.5 to 366 µM) | 12.5 to 150 (≈ 30.5 to 366 µM) | 12.5 to 150 (≈ 30.5 to 366 µM) | 12.5 to 150 (≈ 30.5 to 366 µM)
CCc1cc(C(=O)O)c(=O)[nH]c1-c1ccc2c(c1)cc([C@@H]1CCCN1)n2C.Cl [Cpd 69, (S)-5-ethyl-6-(1-methyl-2-(pyrrolidin-2-yl)-1H-indol-5-yl)-2-oxo-1,2-dihydropyridine-3-carboxylic acid hydrochloride] | 1 to 3.5 | 12.5 to 150 | 12.5 to 150 | < 1
CCc1c(-c2ccc3c(c2)cc(C(C)(C)N2CCCC2)n3C)[nH]c(=O)c(C(=O)O)c1O [Cpd 307, 5-ethyl-4-hydroxy-6-(1-methyl-2-(2-(pyrrolidin-1-yl)propan-2-yl)-1H-indol-5-yl)-2-oxo-1,2-dihydropyridine-3-carboxylic acid] | 12.5 to 150 (≈ 29.5 to 354 µM) | 12.5 to 150 (≈ 29.5 to 354 µM) | 1 to 3.5 (≈ 2.36 to 8.26 µM) | < 1
CCc1cc(C(=O)O)c(=O)[nH]c1-c1cc2cc(CN3CCCCC3)n(C)c2cc1C [Cpd 90, 6-(1,6-dimethyl-2-(piperidin-1-ylmethyl)-1H-indol-5-yl)-5-ethyl-2-oxo-1,2-dihydropyridine-3-carboxylic acid] | 12.5 to 150 (≈ 30.7 to 368 µM) | 12.5 to 150 (≈ 30.7 to 368 µM) | 12.5 to 150 (≈ 30.7 to 368 µM) | 12.5 to 150 (≈ 30.7 to 368 µM)
CCc1cc(C(=O)O)c(=O)[nH]c1-c1ccc2c(c1)cc1n2CCC1N1CCC(N(C)C)C1 (stereo not shown) [Cpd 153, 6-(1-(3-(dimethylamino)pyrrolidin-1-yl)-2,3-dihydro-1H-pyrrolo[1,2-a]indol-7-yl)-5-ethyl-2-oxo-1,2-dihydropyridine-3-carboxylic acid] | 3.5 to 12.5 (≈ 8.05 to 28.8 µM) | 12.5 to 150 (≈ 28.8 to 345 µM) | 12.5 to 150 (≈ 28.8 to 345 µM) | < 1
CCc1cc(C(=O)O)c(=O)[nH]c1-c1ccc2c(c1)cc(CN[C@@H](CC)c1ccccc1)n2C [Cpd 119, (S)-5-ethyl-6-(1-methyl-2-((1-phenylpropylamino)methyl)-1H-indol-5-yl)-2-oxo-1,2-dihydropyridine-3-carboxylic acid] | 1 to 3.5 (≈ 2.25 to 7.89 µM) | 12.5 to 150 (≈ 28.2 to 338 µM) | 3.5 to 12.5 (≈ 7.89 to 28.2 µM) | < 1
CCc1cc(C(=O)O)c(=O)[nH]c1-c1ccc2c(c1)N(C)CCN2C [Cpd 56, 6-(1,4-dimethyl-1,2,3,4-tetrahydroquinoxalin-6-yl)-5-ethyl-2-oxo-1,2-dihydropyridine-3-carboxylic acid] | 12.5 to 150 (≈ 38.2 to 458 µM) | 12.5 to 150 (≈ 38.2 to 458 µM) | 12.5 to 150 (≈ 38.2 to 458 µM) | 3.5 to 12.5 (≈ 10.7 to 38.2 µM)
CCc1cc(C(=O)O)c(=O)[nH]c1-c1cc(C)c2c(c1)cc(CN(C)C)n2C [Cpd 105, 6-(2-((dimethylamino)methyl)-1,7-dimethyl-1H-indol-5-yl)-5-ethyl-2-oxo-1,2-dihydropyridine-3-carboxylic acid] | 3.5 to 12.5 (≈ 9.53 to 34 µM) | 12.5 to 150 (≈ 34 to 408 µM) | 12.5 to 150 (≈ 34 to 408 µM) | < 1
CCc1c(-c2ccc3c(c2)c(C#N)cn3C)[nH]c(=O)c(C(=O)O)c1O [Cpd 359, 6-(3-cyano-1-methyl-1H-indol-5-yl)-5-ethyl-4-hydroxy-2-oxo-1,2-dihydropyridine-3-carboxylic acid] | 12.5 to 150 (≈ 37.1 to 445 µM) | 1 to 3.5 (≈ 2.96 to 10.4 µM) | 12.5 to 150 (≈ 37.1 to 445 µM) | 3.5 to 12.5 (≈ 10.4 to 37.1 µM)
CCc1cc(C(=O)O)c(=O)[nH]c1-c1cc2cc(CN3CCOCC3)n(C)c2cc1OC [Cpd 108, 5-ethyl-6-(6-methoxy-1-methyl-2-(morpholinomethyl)-1H-indol-5-yl)-2-oxo-1,2-dihydropyridine-3-carboxylic acid] | 12.5 to 150 (≈ 29.4 to 353 µM) | 12.5 to 150 (≈ 29.4 to 353 µM) | 12.5 to 150 (≈ 29.4 to 353 µM) | 12.5 to 150 (≈ 29.4 to 353 µM)
CCc1cc(C(=O)O)c(=O)[nH]c1-c1ccc2c(c1)cc(CNCc1ccccc1)n2C [Cpd 114, 6-(2-((benzylamino)methyl)-1-methyl-1H-indol-5-yl)-5-ethyl-2-oxo-1,2-dihydropyridine-3-carboxylic acid] | < 1 | 12.5 to 150 (≈ 30.1 to 361 µM) | 3.5 to 12.5 (≈ 8.42 to 30.1 µM) | < 1
CCc1c(-c2ccc3c(c2)cc(CN[C@@H](C)C(F)(F)F)n3C)[nH]c(=O)c(C(=O)O)c1O [Cpd 273, (S)-5-ethyl-4-hydroxy-6-(1-methyl-2-((1,1,1-trifluoropropan-2-ylamino)methyl)-1H-indol-5-yl)-2-oxo-1,2-dihydropyridine-3-carboxylic acid] | 12.5 to 150 (≈ 28.6 to 343 µM) | 12.5 to 150 (≈ 28.6 to 343 µM) | 3.5 to 12.5 (≈ 8 to 28.6 µM) | < 1
CCc1cc(C(=O)O)c(=O)[nH]c1-c1cc2cc(CN3CCOCC3)n(C)c2cc1Cl [Cpd 91, 6-(6-chloro-1-methyl-2-(morpholinomethyl)-1H-indol-5-yl)-5-ethyl-2-oxo-1,2-dihydropyridine-3-carboxylic acid] | 12.5 to 150 (≈ 29.1 to 349 µM) | 12.5 to 150 (≈ 29.1 to 349 µM) | 12.5 to 150 (≈ 29.1 to 349 µM) | 12.5 to 150 (≈ 29.1 to 349 µM)
CCc1cc(C(=O)O)c(=O)[nH]c1-c1ccc2c(c1)cc(CNCc1ccccn1)n2C [Cpd 120, 5-ethyl-6-(1-methyl-2-((pyridin-2-ylmethylamino)methyl)-1H-indol-5-yl)-2-oxo-1,2-dihydropyridine-3-carboxylic acid] | < 1 | 12.5 to 150 (≈ 30 to 360 µM) | 3.5 to 12.5 (≈ 8.4 to 30 µM) | < 1
CCc1cc(C(=O)O)c(=O)[nH]c1-c1cc2cc(CN3CCOCC3)n(C)c2cc1C [Cpd 94, 6-(1,6-dimethyl-2-(morpholinomethyl)-1H-indol-5-yl)-5-ethyl-2-oxo-1,2-dihydropyridine-3-carboxylic acid] | 12.5 to 150 (≈ 30.5 to 366 µM) | 12.5 to 150 (≈ 30.5 to 366 µM) | 12.5 to 150 (≈ 30.5 to 366 µM) | 12.5 to 150 (≈ 30.5 to 366 µM)
CCc1cc(C(=O)O)c(=O)[nH]c1-c1ccc2c(c1)cc(CN1CCN(C(C)=O)CC1)n2C [Cpd 144, 6-(2-((4-acetylpiperazin-1-yl)methyl)-1-methyl-1H-indol-5-yl)-5-ethyl-2-oxo-1,2-dihydropyridine-3-carboxylic acid] | 3.5 to 12.5 (≈ 8.02 to 28.6 µM) | 12.5 to 150 (≈ 28.6 to 344 µM) | 12.5 to 150 (≈ 28.6 to 344 µM) | < 1
CCc1cc(C(=O)O)c(=O)[nH]c1-c1cc(F)c2c(c1)cc(CN(CC)CC)n2C [Cpd 101, 6-(2-((diethylamino)methyl)-7-fluoro-1-methyl-1H-indol-5-yl)-5-ethyl-2-oxo-1,2-dihydropyridine-3-carboxylic acid] | 3.5 to 12.5 (≈ 8.76 to 31.3 µM) | 12.5 to 150 (≈ 31.3 to 376 µM) | 12.5 to 150 (≈ 31.3 to 376 µM) | < 1
CCc1c(-c2ccc3c(c2)cc(CN2CCC(c4ccncc4)C2)n3C)[nH]c(=O)c(C(=O)O)c1O (stereo not shown) [Cpd 268, 5-ethyl-4-hydroxy-6-(1-methyl-2-((3-(pyridin-4-yl)pyrrolidin-1-yl)methyl)-1H-indol-5-yl)-2-oxo-1,2-dihydropyridine-3-carboxylic acid] | 3.5 to 12.5 (≈ 7.41 to 26.5 µM) | 12.5 to 150 (≈ 26.5 to 317 µM) | 3.5 to 12.5 (≈ 7.41 to 26.5 µM) | < 1
CCc1c(-c2ccc3c(c2)cc(CN2C[C@@H]4[C@H](C2)[C@H]4N(Cc2ccccc2)Cc2ccccc2)n3C)[nH]c(=O)c(C(=O)O)c1O [Cpd 196, 6-(2-(((1R,5S,6s)-6-(dibenzylamino)-3-azabicyclo[3.1.0]hexan-3-yl)methyl)-1-methyl-1H-indol-5-yl)-5-ethyl-4-hydroxy-2-oxo-1,2-dihydropyridine-3-carboxylic acid] | 12.5 to 150 (≈ 20.7 to 249 µM) | 12.5 to 150 (≈ 20.7 to 249 µM) | 12.5 to 150 (≈ 20.7 to 249 µM) | 3.5 to 12.5 (≈ 5.81 to 20.7 µM)
CCc1cc(C(=O)O)c(=O)[nH]c1-c1ccc2nc(CN(CC)CC)cn2c1.Cl.Cl [Cpd 63, 6-(2-((diethylamino)methyl)imidazo[1,2-a]pyridin-6-yl)-5-ethyl-2-oxo-1,2-dihydropyridine-3-carboxylic acid dihydrochloride] | 12.5 to 150 | 12.5 to 150 | 12.5 to 150 | 12.5 to 150
CCc1c(-c2ccc3c(c2)cc(CN2CC(F)(F)C2)n3C)[nH]c(=O)c(C(=O)O)c1O [Cpd 195, 6-(2-((3,3-difluoroazetidin-1-yl)methyl)-1-methyl-1H-indol-5-yl)-5-ethyl-4-hydroxy-2-oxo-1,2-dihydropyridine-3-carboxylic acid] | 3.5 to 12.5 (≈ 8.39 to 29.9 µM) | 12.5 to 150 (≈ 29.9 to 359 µM) | 1 to 3.5 (≈ 2.4 to 8.39 µM) | < 1
CCc1c(-c2ccc3c(c2)cc(CNCc2ccccc2C)n3C)[nH]c(=O)c(C(=O)O)c1O [Cpd 295, 5-ethyl-4-hydroxy-6-(1-methyl-2-((2-methylbenzylamino)methyl)-1H-indol-5-yl)-2-oxo-1,2-dihydropyridine-3-carboxylic acid] | 3.5 to 12.5 (≈ 7.86 to 28.1 µM) | 12.5 to 150 (≈ 28.1 to 337 µM) | 1 to 3.5 (≈ 2.24 to 7.86 µM) | < 1
CCc1c(-c2ccc3c(c2)cc(CN2CCCC2)n3C)[nH]c(=O)c(C(=O)O)c1C(=O)O [Cpd 110, 5-ethyl-6-(1-methyl-2-(pyrrolidin-1-ylmethyl)-1H-indol-5-yl)-2-oxo-1,2-dihydropyridine-3,4-dicarboxylic acid] | 12.5 to 150 (≈ 29.5 to 354 µM) | 12.5 to 150 (≈ 29.5 to 354 µM) | 12.5 to 150 (≈ 29.5 to 354 µM) | 12.5 to 150 (≈ 29.5 to 354 µM)
CCc1cc(C(=O)O)c(=O)[nH]c1-c1ccc2c(c1)cc(CN1C[C@H]3CC[C@@H](N(C)C)[C@H]3C1)n2C [Cpd 147, 6-(2-(((3aR,4R,6aS)-4-(dimethylamino)hexahydrocyclopenta[c]pyrrol-2(1H)-yl)methyl)-1-methyl-1H-indol-5-yl)-5-ethyl-2-oxo-1,2-dihydropyridine-3-carboxylic acid] | < 1 | 12.5 to 150 (≈ 27 to 324 µM) | 12.5 to 150 (≈ 27 to 324 µM) | < 1
CCc1c(-c2ccc3c(c2)cc(CN2CC(N(C)CCN(C)C)C2)n3C)[nH]c(=O)c(C(=O)O)c1O [Cpd 207, 6-(2-((3-((2-(dimethylamino)ethyl)(methyl)amino)azetidin-1-yl)methyl)-1-methyl-1H-indol-5-yl)-5-ethyl-4-hydroxy-2-oxo-1,2-dihydropyridine-3-carboxylic acid] | 12.5 to 150 (≈ 26 to 311 µM) | 12.5 to 150 (≈ 26 to 311 µM) | 12.5 to 150 (≈ 26 to 311 µM) | 1 to 3.5 (≈ 2.08 to 7.27 µM)
